According to PubChem BioAssay AID256 (DTP/NCI, 2004):
Several values for one entry are separate records, joined by “and”; a condition that tells them apart may be missing. Identical values can stand only once. Inconclusive results and toxic doses are left out. Rule for the calls: active = survival T/C of 150% or more; inactive = T/C below 125% in these data.

Tested on: CD2F1 mice, L1210 leukemia ip, survival T/C
Experiment: NCI In Vivo Anticancer Drug Screen. Data for tumor model L1210 Leukemia (intraperitoneal) in CD2F1 (CDF1) mice
Settings: higher = longer survival
Procedure, shortened: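 Mice carrying a transplanted tumor received test compound or vehicle alone. The value is the measurement in the treated group divided by that in the vehicle-treated control group.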

[1] = endpoint: mean survival time, dose: 100.0 mg/kg/injection, schedule: Q01DX001 (ip), vehicle: saline
[2] = endpoint: mean survival time, dose: 200.0 mg/kg/injection, schedule: Q01DX001 (ip), vehicle: saline
[3] = endpoint: mean survival time, dose: 100.0 mg/kg/injection, schedule: Q01DX009 (ip), vehicle: saline with Tween-80
[4] = endpoint: mean survival time, dose: 200.0 mg/kg/injection, schedule: Q01DX009 (ip), vehicle: saline with Tween-80
[5] = endpoint: mean survival time, dose: 400.0 mg/kg/injection, schedule: Q01DX009 (ip), vehicle: saline with Tween-80
[6] = endpoint: mean survival time, dose: 100.0 mg/kg/injection, schedule: Q04DX003 (ip), vehicle: saline with Tween-80
[7] = endpoint: mean survival time, dose: 200.0 mg/kg/injection, schedule: Q04DX003 (ip), vehicle: saline with Tween-80
[8] = endpoint: mean survival time, dose: 400.0 mg/kg/injection, schedule: Q04DX003 (ip), vehicle: saline with Tween-80
[9] = endpoint: mean survival time, dose: 200.0 mg/kg/injection, schedule: Q01DX009 (ip), vehicle: other
[10] = endpoint: mean survival time, dose: 100.0 mg/kg/injection, schedule: Q04DX003 (ip), vehicle: saline sonified
[11] = endpoint: mean survival time, dose: 200.0 mg/kg/injection, schedule: Q04DX003 (ip), vehicle: saline sonified
[12] = endpoint: mean survival time, dose: 400.0 mg/kg/injection, schedule: Q04DX003 (ip), vehicle: saline sonified
[13] = endpoint: mean survival time, dose: 25.0 mg/kg/injection, schedule: Q01DX009 (ip), vehicle: saline with Tween-80

Measured: T/C

COc1ccc(OC)c(OC)c1CC(C)N (configuration not stated)
inactive: endpoint: mean survival time, dose: 25.0 mg/kg/injection, schedule: Q04DX002 (ip), vehicle: saline 108 % of control | endpoint: mean survival time, dose: 50.0 mg/kg/injection, schedule: Q04DX002 (ip), vehicle: saline 97 % of control | endpoint: mean survival time, dose: 100.0 mg/kg/injection, schedule: Q04DX002 (ip), vehicle: saline 91 % of control and 97 % of control

CCOC(=O)c1c([N+](=O)[O-])cnn1C1OC(COC(C)=O)C(OC(C)=O)C1OC(C)=O (configuration not stated)
inactive: endpoint: median survival time, dose: 8.75 mg/kg/injection, schedule: Q01DX005 (ip), vehicle: distilled water + Tween-80 104 % of control | endpoint: median survival time, dose: 17.5 mg/kg/injection, schedule: Q01DX005 (ip), vehicle: distilled water + Tween-80 107 % of control | endpoint: median survival time, dose: 35.0 mg/kg/injection, schedule: Q01DX005 (ip), vehicle: distilled water + Tween-80 96 % of control | endpoint: median survival time, dose: 70.0 mg/kg/injection, schedule: Q01DX005 (ip), vehicle: distilled water + Tween-80 101 % of control | endpoint: median survival time, dose: 140.0 mg/kg/injection, schedule: Q01DX005 (ip), vehicle: distilled water + Tween-80 101 % of control

CC1CCC2(C(=O)O)CCC3(C)C(=CCC4C5(C)CCC(O)C(C)(C)C5CCC43C)C2C1C (configuration not stated)
inactive: [1] 98 % of control | [2] 98 % of control | endpoint: mean survival time, dose: 400.0 mg/kg/injection, schedule: Q01DX001 (ip), vehicle: saline 96 % of control

CC1(C)CC(O)(Cc2ccccc2)C(C)(O)c2ccccc21 (configuration not stated)
inactive: [3] 102 % of control | [4] 88 % of control | [5] 86 % of control

NC(CS(=O)c1ccc([N+](=O)[O-])cc1Cl)C(=O)O (configuration not stated)
inactive: [3] 96 % of control

[Pt+4].[c-]1ccccc1C1CCCC[N-]1.[c-]1ccccc1C1CCCC[N-]1 (configuration not stated)
inactive: endpoint: median survival time, dose: 3.12 mg/kg/injection, schedule: Q04DX003 (ip), vehicle: saline 107 % of control | endpoint: median survival time, dose: 6.25 mg/kg/injection, schedule: Q04DX003 (ip), vehicle: saline 107 % of control | endpoint: median survival time, dose: 12.5 mg/kg/injection, schedule: Q04DX003 (ip), vehicle: saline 103 % of control | endpoint: median survival time, dose: 25.0 mg/kg/injection, schedule: Q04DX003 (ip), vehicle: saline 103 % of control | endpoint: median survival time, dose: 50.0 mg/kg/injection, schedule: Q04DX003 (ip), vehicle: saline 107 % of control | endpoint: median survival time, dose: 100.0 mg/kg/injection, schedule: Q04DX003 (ip), vehicle: saline 103 % of control | endpoint: median survival time, dose: 200.0 mg/kg/injection, schedule: Q04DX003 (ip), vehicle: saline 103 % of control

O=C1C(=O)C(Br)=C(Br)C(Br)=C1Br
inactive: [6] 91 % of control | [7] 91 % of control

COc1cc2c(c(OC)c1OC)-c1c(cc3c(c1OC)OCO3)CC(C)C(C)(O)C2OC(=O)c1ccccc1 (configuration not stated)
inactive: endpoint: median survival time, dose: 25.0 mg/kg/injection, schedule: Q01DX009 (ip), vehicle: saline + Tween-80 + alcohol 100 % of control | endpoint: median survival time, dose: 50.0 mg/kg/injection, schedule: Q01DX009 (ip), vehicle: saline + Tween-80 + alcohol 102 % of control | endpoint: median survival time, dose: 100.0 mg/kg/injection, schedule: Q01DX009 (ip), vehicle: saline + Tween-80 + alcohol 107 % of control | endpoint: median survival time, dose: 200.0 mg/kg/injection, schedule: Q01DX009 (ip), vehicle: saline + Tween-80 + alcohol 102 % of control | endpoint: median survival time, dose: 400.0 mg/kg/injection, schedule: Q01DX009 (ip), vehicle: saline + Tween-80 + alcohol 98 % of control

Cc1ccc(NC(=O)c2ccccc2C(=O)O)c(C)c1
inactive: [3] 109 % of control | [6] 95 % of control | [4] 96 % of control | [7] 109 % of control | [5] 115 % of control | [8] 103 % of control

Cc1ccc(S(=O)(=O)C[n+]2ccc(C(=O)c3ccccc3)cc2)cc1
inactive: endpoint: mean survival time, dose: 25.0 mg/kg/injection, schedule: Q04DX002 (ip), vehicle: saline with Tween-80 90 % of control | endpoint: mean survival time, dose: 50.0 mg/kg/injection, schedule: Q04DX002 (ip), vehicle: saline with Tween-80 97 % of control | endpoint: mean survival time, dose: 100.0 mg/kg/injection, schedule: Q04DX002 (ip), vehicle: saline with Tween-80 97 % of control and 104 % of control

Cc1ccc(N=Nc2c(N)nc(N)[nH]c2=O)cc1C
inactive: [3] 97 % of control | [4] 97 % of control | [5] 99 % of control

O=c1cc(Cl)ncn1C1OC(CO)C(O)C1O (configuration not stated)
inactive: endpoint: median survival time, dose: 12.5 mg/kg/injection, schedule: Q01DX005 (ip), vehicle: saline 108 % of control | endpoint: median survival time, dose: 25.0 mg/kg/injection, schedule: Q01DX005 (ip), vehicle: saline 104 % of control | endpoint: median survival time, dose: 50.0 mg/kg/injection, schedule: Q01DX005 (ip), vehicle: saline 95 % of control | endpoint: median survival time, dose: 100.0 mg/kg/injection, schedule: Q01DX005 (ip), vehicle: saline 97 % of control | endpoint: median survival time, dose: 200.0 mg/kg/injection, schedule: Q01DX005 (ip), vehicle: saline 97 % of control

CCOC(NCc1ccc(OC)c(OC)c1)OCC
inactive: [1] 98 % of control | [2] 98 % of control

CNC(C)COc1ccccc1 (configuration not stated)
inactive: [6] 86 % of control

Cc1ccccc1N1C(=O)CSC1=S
inactive: [3] 98 % of control | [4] 106 % of control

CCNCC
inactive: endpoint: mean survival time, dose: 100.0 mg/kg/injection, schedule: Q01DX009 (ip), vehicle: saline 100 % of control | endpoint: mean survival time, dose: 200.0 mg/kg/injection, schedule: Q01DX009 (ip), vehicle: saline 94 % of control | endpoint: mean survival time, dose: 400.0 mg/kg/injection, schedule: Q01DX009 (ip), vehicle: saline 105 % of control

O=C(C1CCCCC1)C1CCC2(CCCCC2)CC1
inactive: endpoint: mean survival time, dose: 12.5 mg/kg/injection, schedule: Q01DX009 (ip), vehicle: other 92 % of control | endpoint: mean survival time, dose: 25.0 mg/kg/injection, schedule: Q01DX009 (ip), vehicle: other 87 % of control | endpoint: mean survival time, dose: 50.0 mg/kg/injection, schedule: Q01DX009 (ip), vehicle: other 93 % of control | endpoint: mean survival time, dose: 100.0 mg/kg/injection, schedule: Q01DX009 (ip), vehicle: other 92 % of control | [9] 95 % of control

CC1c2ccccc2C=CN1C (configuration not stated)
inactive: [10] 95 % of control | [11] 106 % of control | [12] 105 % of control

[N-]=[N+]=CC(=O)NCC(=O)NCCO
inactive: endpoint: mean survival time, dose: 50.0 mg/kg/injection, schedule: Q01DX001 (ip), vehicle: other 101 % of control | endpoint: mean survival time, dose: 100.0 mg/kg/injection, schedule: Q01DX001 (ip), vehicle: other 103 % of control | endpoint: mean survival time, dose: 200.0 mg/kg/injection, schedule: Q01DX001 (ip), vehicle: other 106 % of control | [9] 103 % of control | endpoint: mean survival time, dose: 400.0 mg/kg/injection, schedule: Q01DX001 (ip), vehicle: other 109 % of control | endpoint: mean survival time, dose: 600.0 mg/kg/injection, schedule: Q01DX009 (ip), vehicle: other 121 % of control | endpoint: mean survival time, dose: 1000.0 mg/kg/injection, schedule: Q01DX009 (ip), vehicle: other 114 % of control

O=[N+]([O-])c1ccc2c(c1)CS(=O)(=O)C2
inactive: [3] 101 % of control | [6] 96 % of control | [4] 101 % of control | [7] 90 % of control | [5] 101 % of control | [8] 96 % of control

Nc1nnc(C(F)(F)F)s1
inactive: endpoint: mean survival time, dose: 100.0 mg/kg/injection, schedule: Q04DX002 (ip), vehicle: Klucel (hydroxypropylcellulose) (HPC) 101 % of control | endpoint: mean survival time, dose: 200.0 mg/kg/injection, schedule: Q04DX002 (ip), vehicle: Klucel (hydroxypropylcellulose) (HPC) 101 % of control | endpoint: mean survival time, dose: 400.0 mg/kg/injection, schedule: Q04DX002 (ip), vehicle: Klucel (hydroxypropylcellulose) (HPC) 108 % of control

O=C(Nc1c(Oc2ccc(Cl)cc2)ccc(Cl)c1S(=O)(=O)O)Nc1c(Oc2ccc(Cl)c(Cl)c2)ccc(Cl)c1S(=O)(=O)O
inactive: [1] 93 % of control | [2] 88 % of control

c1ccc2c([Si](O[Si](c3cccc4ccccc34)C3CCCCC3)C3CCCCC3)cccc2c1
inactive: [3] 100 % of control | [6] 93 % of control | [4] 91 % of control | [7] 91 % of control | [5] 88 % of control

O=C(CNC(=O)c1ccccc1)N/N=C/Cc1ccccc1
inactive: [3] 97 % of control | [4] 104 % of control | [5] 104 % of control

[NH2-].[NH2-].[NH2-].[NH2-].[Pt+4]
inactive: [13] 92 % of control | endpoint: mean survival time, dose: 100.0 mg/kg/injection, schedule: Q04DX003 (ip), vehicle: saline 98 % of control

CSc1ccc(N=C=C(c2ccccc2)c2ccccc2)cc1
inactive: endpoint: mean survival time, dose: 6.25 mg/kg/injection, schedule: Q01DX009 (ip), vehicle: saline with Tween-80 96 % of control | endpoint: mean survival time, dose: 12.5 mg/kg/injection, schedule: Q01DX009 (ip), vehicle: saline with Tween-80 94 % of control | [13] 94 % of control | [6] 93 % of control | [7] 95 % of control | [8] 97 % of control

C=CCN(CC=C)C(=O)Nc1ccc(C)c(C)c1
inactive: endpoint: mean survival time, dose: 50.0 mg/kg/injection, schedule: Q01DX009 (ip), vehicle: saline with Tween-80 96 % of control | [3] 92 % of control | [4] 96 % of control

N#CSC/C(=N\Nc1ccc([N+](=O)[O-])cc1[N+](=O)[O-])c1ccccc1
inactive: [10] 103 % of control | [11] 102 % of control | [12] 103 % of control
